Tests used:
Test in all cases: relative viability (nuclei count vs DMSO), 5 days (fraction); higher = more cells survive
ChaGo-K-1 = system: ChaGo-K-1
Outline: (§1)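 For relative viability, nuclei counts in treated wells were divided by those in vehicle wells. Lung cancer cell lines had been pin-tool dosed in 1536-well plates the day after seeding and cultured for 5 days, then fixed and stained in one step (final 0.05% Triton X-100, 1% formaldehyde, 1 ug/ml Hoechst) and imaged at 4×. Doses were one drug alone or a fixed anchor-drug dose plus five library-drug doses (not always all listed) in √10 steps, and values are duplicate-plate medians.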

EKVX = system: EKVX
Outline: as §1

EMC-BAC-2 = system: EMC-BAC-2
Outline: as §1

H3255 = system: H3255
Outline: as §1

HARA = system: HARA
Outline: as §1

HCC-15 = system: HCC-15
Outline: as §1

HCC-827 = system: HCC-827
Outline: as §1

LC-2-ad = system: LC-2-ad
Outline: as §1

LCLC-97TM1 = system: LCLC-97TM1
Outline: as §1

LU99A = system: LU99A
Outline: as §1

NCI-H1437 = system: NCI-H1437
Outline: as §1

NCI-H1792 = system: NCI-H1792
Outline: as §1

NCI-H1793 = system: NCI-H1793
Outline: as §1

NCI-H1915 = system: NCI-H1915
Outline: as §1

NCI-H1944 = system: NCI-H1944
Outline: as §1

NCI-H2126 = system: NCI-H2126
Outline: as §1

NCI-H23 = system: NCI-H23
Outline: as §1

NCI-H322M = system: NCI-H322M
Outline: as §1

NCI-H441 = system: NCI-H441
Outline: as §1

NCI-H460 = system: NCI-H460
Outline: as §1

NCI-H661 = system: NCI-H661
Outline: as §1

PC-3 [JPC-3] = system: PC-3 [JPC-3]
Outline: as §1

SK-LU-1 = system: SK-LU-1
Outline: as §1

O=c1[nH]c2ccccc2n1C1CCN(CCCC(c2ccc(F)cc2)c2ccc(F)cc2)CC1 [Pimozide] + O=C(c1cc(Cc2n[nH]c(=O)c3ccccc23)ccc1F)N1CCN(C(=O)C2CC2)CC1 [Olaparib] (partner 8 µM) gave a relative viability (ChaGo-K-1; first compound 0.08 µM) of 0.402, a relative viability (ChaGo-K-1; first compound 0.253 µM) of 0.365 and a relative viability (ChaGo-K-1; first compound 0.8 µM) of 0.433. It also gave a relative viability (ChaGo-K-1; first compound 2.53 µM) of 0.467, a relative viability (ChaGo-K-1; first compound 8 µM) of 0.413 and a relative viability (EKVX; first compound 0.253 µM) of 0.783. It also gave a relative viability (EKVX; first compound 0.8 µM) of 0.823, a relative viability (EKVX; first compound 2.53 µM) of 0.854 and a relative viability (EKVX; first compound 8 µM) of 0.795. The relative viability (EMC-BAC-2; first compound 0.08 µM) was 0.506, the relative viability (EMC-BAC-2; first compound 0.253 µM) was 0.463 and the relative viability (EMC-BAC-2; first compound 0.8 µM) was 0.455. The relative viability (EMC-BAC-2; first compound 2.53 µM) was 0.456, the relative viability (EMC-BAC-2; first compound 8 µM) was 0.448 and the relative viability (H3255; first compound 0.253 µM) was 0.511. It also gave a relative viability (H3255; first compound 0.8 µM) of 0.504, a relative viability (H3255; first compound 2.53 µM) of 0.523 and a relative viability (H3255; first compound 8 µM) of 0.59. It also gave a relative viability (HARA; first compound 0.08 µM) of 0.785, a relative viability (HARA; first compound 0.253 µM) of 0.764 and a relative viability (HARA; first compound 0.8 µM) of 0.746. The relative viability (HARA; first compound 2.53 µM) was 0.74, the relative viability (HARA; first compound 8 µM) was 0.749 and the relative viability (HCC-15; first compound 0.08 µM) was 0.72. The relative viability (HCC-15; first compound 0.253 µM) was 0.672, the relative viability (HCC-15; first compound 0.8 µM) was 0.717 and the relative viability (HCC-15; first compound 2.53 µM) was 0.712. For the same compound, the relative viability (HCC-15; first compound 8 µM) was 0.738, the relative viability (HCC-827; first compound 0.253 µM) was 0.627 and the relative viability (HCC-827; first compound 0.8 µM) was 0.7. For the same compound, the relative viability (HCC-827; first compound 2.53 µM) was 0.747, the relative viability (HCC-827; first compound 8 µM) was 0.678 and the relative viability (LC-2-ad; first compound 0.08 µM) was 0.68. For the same compound, the relative viability (LC-2-ad; first compound 0.253 µM) was 0.731, the relative viability (LC-2-ad; first compound 0.8 µM) was 0.69 and the relative viability (LC-2-ad; first compound 2.53 µM) was 0.668. The relative viability (LC-2-ad; first compound 8 µM) was 0.673, the relative viability (LCLC-97TM1; first compound 0.08 µM) was 0.387 and the relative viability (LCLC-97TM1; first compound 0.253 µM) was 0.314. It also gave a relative viability (LCLC-97TM1; first compound 0.8 µM) of 0.404, a relative viability (LCLC-97TM1; first compound 2.53 µM) of 0.222 and a relative viability (LCLC-97TM1; first compound 8 µM) of 0.269. The relative viability (LU99A; first compound 0.08 µM) was 0.251, the relative viability (LU99A; first compound 0.8 µM) was 0.26 and the relative viability (LU99A; first compound 2.53 µM) was 0.297. For the same compound, the relative viability (LU99A; first compound 8 µM) was 0.254, the relative viability (NCI-H1437; first compound 0.08 µM) was 0.615 and the relative viability (NCI-H1437; first compound 0.253 µM) was 0.616. For the same compound, the relative viability (NCI-H1437; first compound 0.8 µM) was 0.6, the relative viability (NCI-H1437; first compound 2.53 µM) was 0.573 and the relative viability (NCI-H1437; first compound 8 µM) was 0.463. The relative viability (NCI-H1792; first compound 0.08 µM) was 0.298, the relative viability (NCI-H1792; first compound 0.253 µM) was 0.452 and the relative viability (NCI-H1792; first compound 0.8 µM) was 0.452. It also gave a relative viability (NCI-H1792; first compound 2.53 µM) of 0.406, a relative viability (NCI-H1792; first compound 8 µM) of 0.375 and a relative viability (NCI-H1793; first compound 0.08 µM) of 0.762. For the same compound, the relative viability (NCI-H1793; first compound 0.253 µM) was 0.826, the relative viability (NCI-H1793; first compound 0.8 µM) was 0.875 and the relative viability (NCI-H1793; first compound 2.53 µM) was 0.772. For the same compound, the relative viability (NCI-H1793; first compound 8 µM) was 0.706, the relative viability (NCI-H1915; first compound 0.08 µM) was 0.259 and the relative viability (NCI-H1915; first compound 0.253 µM) was 0.241. The relative viability (NCI-H1915; first compound 2.53 µM) was 0.246, the relative viability (NCI-H1915; first compound 8 µM) was 0.243 and the relative viability (NCI-H1944; first compound 0.08 µM) was 0.427. The relative viability (NCI-H1944; first compound 2.53 µM) was 0.35, the relative viability (NCI-H1944; first compound 8 µM) was 0.413 and the relative viability (NCI-H2126; first compound 0.08 µM) was 0.922. It also gave a relative viability (NCI-H2126; first compound 0.253 µM) of 0.89, a relative viability (NCI-H2126; first compound 0.8 µM) of 0.944 and a relative viability (NCI-H2126; first compound 2.53 µM) of 0.92. The relative viability (NCI-H2126; first compound 8 µM) was 0.858, the relative viability (NCI-H23; first compound 0.08 µM) was 0.293 and the relative viability (NCI-H23; first compound 0.253 µM) was 0.326. For the same compound, the relative viability (NCI-H23; first compound 0.8 µM) was 0.325, the relative viability (NCI-H23; first compound 2.53 µM) was 0.285 and the relative viability (NCI-H23; first compound 8 µM) was 0.275. For the same compound, the relative viability (NCI-H322M; first compound 0.08 µM) was 0.76, the relative viability (NCI-H322M; first compound 0.253 µM) was 0.732 and the relative viability (NCI-H322M; first compound 0.8 µM) was 0.684. For the same compound, the relative viability (NCI-H322M; first compound 2.53 µM) was 0.833, the relative viability (NCI-H322M; first compound 8 µM) was 0.795 and the relative viability (NCI-H441; first compound 0.08 µM) was 0.641. For the same compound, the relative viability (NCI-H441; first compound 0.253 µM) was 0.593, the relative viability (NCI-H441; first compound 0.8 µM) was 0.506 and the relative viability (NCI-H441; first compound 2.53 µM) was 0.416. For the same compound, the relative viability (NCI-H441; first compound 8 µM) was 0.57, the relative viability (NCI-H460; first compound 0.08 µM) was 0.499 and the relative viability (NCI-H460; first compound 0.253 µM) was 0.48. For the same compound, the relative viability (NCI-H460; first compound 0.8 µM) was 0.394, the relative viability (NCI-H460; first compound 2.53 µM) was 0.361 and the relative viability (NCI-H460; first compound 8 µM) was 0.398. It also gave a relative viability (NCI-H661; first compound 0.08 µM) of 0.735, a relative viability (NCI-H661; first compound 0.253 µM) of 0.699 and a relative viability (NCI-H661; first compound 0.8 µM) of 0.704. It also gave a relative viability (NCI-H661; first compound 2.53 µM) of 0.675, a relative viability (NCI-H661; first compound 8 µM) of 0.587 and a relative viability (PC-3 [JPC-3]; first compound 0.253 µM) of 1.09. For the same compound, the relative viability (PC-3 [JPC-3]; first compound 0.8 µM) was 1.1, the relative viability (PC-3 [JPC-3]; first compound 2.53 µM) was 1.08 and the relative viability (PC-3 [JPC-3]; first compound 8 µM) was 1. For the same compound, the relative viability (SK-LU-1; first compound 0.08 µM) was 0.497, the relative viability (SK-LU-1; first compound 0.253 µM) was 0.485 and the relative viability (SK-LU-1; first compound 0.8 µM) was 0.487. For the same compound, the relative viability (SK-LU-1; first compound 2.53 µM) was 0.372 and the relative viability (SK-LU-1; first compound 8 µM) was 0.383.

Reference: the supplement of paper PMC10307832
